Laboratory results: ChEMBL document CHEMBL3808354, “Synthesis and biological evaluation of oxindole linked indolyl-pyrimidine derivatives as potential cytotoxic agents” (Bioorg Med Chem Lett, 2016)
Active and inactive are the calls of the source. The rule behind the calls is not given here.

Columns and labels:
[1] = test system: LNCaP; assay: Cytotoxicity against human LNCAP cells assessed as decrease in cell viability after 48 hrs by MTT assay; format: functional, cell-based
[2] = Cytotoxicity against human U87MG cells assessed as decrease in cell viability after 48 hrs by MTT assay; format: functional, cell-based, U-87MG ATCC; conditions: U-87 MG
[3] = Cytotoxicity against human PA1 cells assessed as decrease in cell viability after 48 hrs by MTT assay; format: functional, cell-based; conditions: PA-1, 48 h
[4] = test system: MCF7; assay: Cytotoxicity against human MCF7 cells assessed as decrease in cell viability after 48 hrs by MTT assay; format: functional, cell-based; conditions: MCF7, 48 h
[5] = Cytotoxicity against human RWPE1 cells assessed as decrease in cell viability after 48 hrs by MTT assay; format: cell-based; conditions: RWPE-1, 48 h
[6] = Selectivity ratio of IC50 for human RWPE1 cells to IC50 for human LNCAP cells; format: ADME, cell-based; conditions: RWPE1 cells and LNCaP cells, read-out: Ratio IC50
[7] = test system: PA-1; assay: Induction of cell death in human PA1 cells assessed as cell shrinking at 1 to 2.5 uM after 24 hrs by acridine orange/ethidium bromide staining based fluorescence microscopy; format: functional
[8] = Cell cycle arrest in human PA1 cells assessed as accumulation at G2/M phase at 2.5 uM after 24 hrs by propidium iodide staining based flow cytometry (reference value: 15.72%); format: functional; conditions: PA-1
[9] = Cell cycle arrest in human PA1 cells assessed as accumulation at G0/G1 phase at 2.5 uM after 24 hrs by propidium iodide staining based flow cytometry (reference value: 73.23%); format: functional; conditions: PA-1
[10] = test system: PA-1; assay: Induction of apoptosis in human PA1 cells after 24 hrs by annexin V-FITC/propidium iodide staining based flow cytometry; format: functional, cell-based
[11] = test system: PA-1; assay: Induction of apoptosis in human PA1 cells assessed as necrotic cells at 2.5 uM after 24 hrs by annexin V-FITC/propidium iodide staining based flow cytometry (reference value: 0.10%); format: functional
[12] = test system: PA-1; assay: Induction of cell death in human PA1 cells assessed as chromatin condensation at 1 to 2.5 uM after 24 hrs by acridine orange/ethidium bromide staining based fluorescence microscopy; format: functional
[13] = test system: PA-1; assay: Induction of apoptosis in human PA1 cells assessed as late apoptotic cells at 1 uM after 24 hrs by annexin V-FITC/propidium iodide staining based flow cytometry (reference value: 1.24%); format: functional
[14] = Cell cycle arrest in human PA1 cells assessed as accumulation at S phase at 2.5 uM after 24 hrs by propidium iodide staining based flow cytometry (reference value: 10.25%); format: functional; conditions: PA-1
[15] = test system: PA-1; assay: Induction of morphological changes in human PA1 cells assessed as cell shrinking at 1 to 2.5 uM after 24 hrs by inverted phase contrast microscopy; format: functional, cell-based
[16] = test system: PA-1; assay: Induction of apoptosis in human PA1 cells assessed as late apoptotic cells at 2.5 uM after 24 hrs by annexin V-FITC/propidium iodide staining based flow cytometry (reference value: 1.24%); format: functional
[17] = Cell cycle arrest in human PA1 cells assessed as accumulation at G0/G1 phase at 1 uM after 24 hrs by propidium iodide staining based flow cytometry (reference value: 73.23%); format: functional; conditions: PA-1
[18] = test system: PA-1; assay: Induction of morphological changes in human PA1 cells assessed as cell wall deformation at 1 to 2.5 uM after 24 hrs by inverted phase contrast microscopy; format: functional, cell-based
[19] = test system: PA-1; assay: Induction of apoptosis in human PA1 cells assessed as necrotic cells at 1 uM after 24 hrs by annexin V-FITC/propidium iodide staining based flow cytometry (reference value: 0.10%); format: functional
[20] = Cell cycle arrest in human PA1 cells assessed as accumulation at S phase at 1 uM after 24 hrs by propidium iodide staining based flow cytometry (reference value: 10.25%); format: functional; conditions: PA-1
[21] = test system: PA-1; assay: Induction of apoptosis in human PA1 cells assessed as viable cells at 2.5 uM after 24 hrs by annexin V-FITC/propidium iodide staining based flow cytometry (reference value: 97.01%); format: functional; conditions: PA-1, 24 h, read-out: Activity
[22] = Cell cycle arrest in human PA1 cells assessed as accumulation at G2/M phase after 24 hrs by propidium iodide staining based flow cytometry; format: functional; conditions: PA-1
[23] = test system: PA-1; assay: Induction of apoptosis in human PA1 cells assessed as early apoptotic cells at 2.5 uM after 24 hrs by annexin V-FITC/propidium iodide staining based flow cytometry (reference value: 1.65%); format: functional
[24] = test system: PA-1; assay: Antiproliferative activity against human PA1 cells assessed as reduction in viable cells at 1 to 2.5 uM after 24 hrs by inverted phase contrast microscopy; format: functional, cell-based
[25] = test system: PA-1; assay: Induction of apoptosis in human PA1 cells assessed as early apoptotic cells at 1 uM after 24 hrs by annexin V-FITC/propidium iodide staining based flow cytometry (reference value: 1.65%); format: functional
[26] = test system: PA-1; assay: Induction of apoptosis in human PA1 cells assessed as viable cells at 1 uM after 24 hrs by annexin V-FITC/propidium iodide staining based flow cytometry (reference value: 97.01%); format: functional; conditions: PA-1, 24 h, read-out: Activity
[27] = Cell cycle arrest in human PA1 cells assessed as accumulation at G2/M phase at 1 uM after 24 hrs by propidium iodide staining based flow cytometry (reference value: 15.72%); format: functional; conditions: PA-1
[28] = test system: PA-1; assay: Induction of cell death in human PA1 cells assessed as membrane blebbing at 1 to 2.5 uM after 24 hrs by acridine orange/ethidium bromide staining based fluorescence microscopy; format: functional
[29] = test system: PA-1; assay: Induction of cell death in human PA1 cells assessed as apoptotic body formation at 1 to 2.5 uM after 24 hrs by acridine orange/ethidium bromide staining based fluorescence microscopy; format: functional

What does the source list for `Cn1cc(/C=C2/C(=O)Nc3ccccc32)c2cc(Nc3nccc(-c4cccnc4)n3)ccc21`?
IC50 [1]: 14.2 µM; IC50 [2]: 14.8 µM; IC50 [3]: 18.1 µM; IC50 [4]: 46.6 µM; IC50 [5]: 69.8 µM

Which results are given for `Cn1cc(/C=C2/C(=O)Nc3ccccc32)c2cc(Nc3nccc(-c4ccc(Cl)cc4Cl)n3)ccc21`?
IC50 [1]: > 100 µM; IC50 [2]: 36.8 µM; IC50 [3]: > 100 µM; IC50 [4]: > 100 µM

With `Cc1ccc(-c2ccnc(Nc3ccc4c(c3)c(/C=C3/C(=O)Nc5ccccc53)cn4C)n2)cc1` as the molecule, how does the IC50 [1] read?
Its IC50 is > 100 µM.

What about the IC50 [2] of the same molecule?
The IC50 was > 100 µM.

And the IC50 [3]?
The IC50 was > 100 µM.

And the IC50 [4]?
Its IC50 is > 100 µM.

Which IC50 [1] does the source give for `Cn1cc(/C=C2/C(=O)Nc3ccccc32)c2cc(Nc3nccc(-c4ccc(F)cc4)n3)ccc21` here?
The IC50 was 16.3 µM.

What about the IC50 [2] of the same molecule?
Its IC50 is 16.4 µM.

What about the IC50 [3] of the same molecule?
Its IC50 is 31.8 µM.

And the IC50 [4]?
Its IC50 is 48.1 µM.

And the selectivity ratio [6]?
Its selectivity ratio is 10.3.

What about the IC50 [5] of the same molecule?
The IC50 was 168 µM.

For `Cn1cc(/C=C2/C(=O)Nc3ccccc32)c2cc(Nc3nccc(-c4cccs4)n3)ccc21`, which IC50 [1] is on record?
The IC50 was 10.3 µM.

And the IC50 [2]?
Its IC50 is 7.18 µM.

What about the IC50 [3] of the same molecule?
The IC50 was 7.94 µM.

What about the IC50 [4] of the same molecule?
Its IC50 is 30.8 µM.

And the IC50 [5]?
Its IC50 is 64.9 µM.

With `COc1ccc(-c2ccnc(Nc3ccc4c(c3)c(/C=C3/C(=O)Nc5ccccc53)cn4C)n2)cc1` as the molecule, how does the IC50 [1] read?
Its IC50 is > 100 µM.

What about the IC50 [2] of the same molecule?
Its IC50 is > 100 µM.

What about the IC50 [3] of the same molecule?
Its IC50 is > 100 µM.

And the IC50 [4]?
Its IC50 is > 100 µM.

For `Cn1cc(/C=C2/C(=O)Nc3ccccc32)c2cc(Nc3nccc(-c4ccc(O)cc4)n3)ccc21`, which IC50 [1] is on record?
The IC50 was 10.8 µM.

And the IC50 [2]?
Its IC50 is 13.2 µM.

What about the IC50 [3] of the same molecule?
Its IC50 is 9.27 µM.

And the IC50 [4]?
Its IC50 is 39.6 µM.

What about the IC50 [5] of the same molecule?
The IC50 was 58.4 µM.

Which results are given for `Cn1cc(/C=C2/C(=O)Nc3ccccc32)c2cc(Nc3nccc(-c4ccc(C(F)(F)F)cc4)n3)ccc21`?
IC50 [1]: > 100 µM; IC50 [2]: 26 µM; IC50 [3]: 63.9 µM; IC50 [4]: 65.2 µM

Which IC50 [1] does the source give for `Cn1cc(/C=C2/C(=O)Nc3ccccc32)c2cc(Nc3nccc(-c4ccccc4)n3)ccc21` here?
Its IC50 is 13.4 µM.

And the IC50 [2]?
The IC50 was 14.1 µM.

What about the IC50 [3] of the same molecule?
The IC50 was 17.3 µM.

And the IC50 [4]?
Its IC50 is 42.9 µM.

What about the IC50 [5] of the same molecule?
Its IC50 is 95.6 µM.

With `O=c1[nH]cc(F)c(=O)[nH]1` [FLUOROURACIL] as the molecule, how does the IC50 [1] read?
Its IC50 is 47.2 µM.

What about the IC50 [2] of the same molecule?
Its IC50 is 15.5 µM.

And the IC50 [3]?
Its IC50 is 8.51 µM.

What about the IC50 [4] of the same molecule?
Its IC50 is 32.3 µM.

Which Activity [7] does the source give for `Cn1cc(/C=C2/C(=O)Nc3ccccc32)c2cc(Nc3nccc(-c4ccc(Cl)cc4)n3)ccc21` here?
Its Activity is “Active”.

What about the Activity [8] of the same molecule?
The Activity was 31.1%.

What about the Activity [9] of the same molecule?
The Activity was 57.1%.

What about the Activity [10] of the same molecule?
Its Activity is “Dose-dependent effect”.

What about the Activity [11] of the same molecule?
Its Activity is 3.03%.

And the Activity [12]?
The Activity was “Active”.

What about the Activity [13] of the same molecule?
The Activity was 7.42%.

What about the Activity [14] of the same molecule?
The Activity was 10.8%.

And the Activity [15]?
Its Activity is “Active”.

And the Activity [16]?
The Activity was 20.01%.

What about the IC50 [1] of the same molecule?
Its IC50 is 6.59 µM.

And the IC50 [2]?
Its IC50 is 5.82 µM.

And the Activity [17]?
Its Activity is 67.8%.

What about the IC50 [3] of the same molecule?
Its IC50 is 2.43 µM.

And the Activity [18]?
The Activity was “Active”.

And the IC50 [4]?
Its IC50 is 23.5 µM.

What about the Activity [19] of the same molecule?
Its Activity is 0.4%.

And the Activity [20]?
The Activity was 13.6%.

What about the viability at 2.5 µM [21] of the same molecule?
Its viability at 2.5 µM is 51.8%.

What about the Activity [22] of the same molecule?
The Activity was “Dose-dependent effect”.

What about the Activity [23] of the same molecule?
The Activity was 25.18%.

What about the Activity [24] of the same molecule?
Its Activity is “Active”.

And the Activity [25]?
Its Activity is 16.68%.

What about the viability at 1 µM [26] of the same molecule?
The viability at 1 µM was 75.5%.

And the Activity [27]?
The Activity was 17.6%.

What about the Activity [28] of the same molecule?
The Activity was “Active”.

And the IC50 [5]?
The IC50 was 41.1 µM.

And the Activity [29]?
The Activity was “Active”.

With `CCN(CC)CCNC(=O)c1c(C)[nH]c(/C=C2\C(=O)Nc3ccc(F)cc32)c1C` [SUNITINIB] as the molecule, how does the IC50 [1] read?
The IC50 was 12.6 µM.

And the IC50 [2]?
Its IC50 is 59.8 µM.

What about the IC50 [3] of the same molecule?
The IC50 was 7.97 µM.

What about the IC50 [4] of the same molecule?
The IC50 was 23.8 µM.

And the IC50 [5]?
Its IC50 is 23 µM.
